Source: patent publication US20040209859A1, “Fused cycloalkyl amides and acids and their therapeutic applications” (priority 2002, published 2004)

Structure (SMILES)	melting point [°C]
CC1(C)[C@@H]2CC3[C@H](C(=O)O)[C@@]3(C)C[C@@H]21 (stereo partly drawn) (hydrate or solvate) [Example 1, (1S,3S,4S,7R)-3,8,8-trimethyltricyclo[5.1.0.0^3,5]octane-4-carboxylic acid]	86
CC1(C)[C@@H]2CC3[C@H](C(=O)NCC(N)=O)[C@@]3(C)C[C@@H]21 (stereo partly drawn) [Example 4, (1S,3S,4S,7R)-N-(2-amino-2-oxoethyl)-3,8,8-trimethyltricyclo [5.1.0.0^3,5]octane-4-carboxamide]	169.2 to 169.7
CC1(C)[C@@H]2CC3[C@H](C(N)=O)[C@@]3(C)C[C@@H]21 (stereo partly drawn) [Example 3, (1S,3S,4S,7R)-3,8,8-trimethyltricyclo[5.1.0.0^3,5]octane-4-carboxamide]	121.5 to 122.5
